# Assay results reported in patent US10610522B2, “Methods for retreating irritable bowel syndrome (IBS)” (Salix Pharmaceuticals, Inc., priority 2014, dated 2020).
# Several values for one entry are separate records, joined by “and”; a condition that tells them apart may be missing. Identical values can stand only once.
# Columns and labels:
# cytochrome P450 2C9 = cytochrome P450 2C9 (Homo sapiens, UniProt P11712); assay: In vitro cytochrome P450 inhibition; type: biochemical; details: 2 to 200 ng/mL
# non-constipation IBS = assay: Study 2 (TARGET 2): rifaximin 550 mg TID 14 days vs placebo in non-C IBS, 10-week follow-up; type: in vivo, human
# Method: The primary efficacy endpoint of the study was the proportion of subjects who achieved adequate relief of IBS symptoms for at least 2 weeks during the first 4 weeks of the 10-week follow-up phase.
# Two measures of efficacy were assessed.
# Subjects were questioned on the relief of overall IBS symptoms and bloating. […] The analyses defined success as a “yes” response to questions regarding adequate relief. […]
# All subpopulations in the study responded to therapy. Baseline severity was determined during screening for Abdominal Pain/Discomfort and Bloating, and the number, type (normal, hard, loose) and urgency of bowel movements. Duration of effect was assessed in a ten week follow-up period. […]
# In TARGET 1 and 2, the primary endpoint was the proportion of patients who achieved adequate relief of IBS symptoms for at least 2 of 4 weeks during the month following 14 days of treatment. Adequate relief was defined as a response of “yes” to the following weekly Subject Global Assessment (SGA) question: “In regards to your IBS symptoms, compared to the way you felt before you started study medication, have you, in the past 7 days, had adequate relief of your IBS symptoms? [Yes/No]”
# The key secondary endpoint was the proportion of patients who achieved adequate relief of IBS-related bloating for at least 2 of 4 weeks during the month following 2 weeks of treatment. Adequate relief of IBS-related bloating was defined as a response of “yes” to the following weekly (every 7 days) SGA question: “In regards to your IBS symptom of bloating, compared to the way you felt before you started study medication, have you, in the past 7 days, had adequate relief of your IBS symptom of bloating? […]
# rabbit fetuses = assay: Developmental toxicity in pregnant rabbits; type: in vivo
# [1] = 550 mg TID, Population: ITT (N = 315)
# [2] = 550 mg TID, Population: PP (N = 311)
# [3] = 550 mg TID, Weeks 3-6, Population: PP (N = 311)
# [4] = 550 mg TID, at least 2 of Weeks 3-6, N = 315, LOCF
# [5] = Age Group: <65 (N = 281), 550 mg TID, Weeks 3-6
# [6] = Age Group: >=65, 550 mg TID, Weeks 3-6
# [7] = Gender: Female (N = 226), 550 mg TID, Weeks 3-6
# [8] = Gender: Male (N = 85), 550 mg TID, Weeks 3-6
# [9] = IBS Subtype: Alternating-predominant, 550 mg TID, Weeks 3-6
# [10] = IBS Subtype: Diarrhoea-predominant, 550 mg TID, Weeks 3-6
# [11] = Race: Non-White (N = 31), 550 mg TID, Weeks 3-6
# [12] = Race: White (N = 280), 550 mg TID, Weeks 3-6
# [13] = Study 2, at least 2 weeks during PEP
# [14] = TARGET 2, month following two weeks of treatment, 550 mg TID, N = 315
# Sequence of cytochrome P450 2C9 (P11712 whole entry): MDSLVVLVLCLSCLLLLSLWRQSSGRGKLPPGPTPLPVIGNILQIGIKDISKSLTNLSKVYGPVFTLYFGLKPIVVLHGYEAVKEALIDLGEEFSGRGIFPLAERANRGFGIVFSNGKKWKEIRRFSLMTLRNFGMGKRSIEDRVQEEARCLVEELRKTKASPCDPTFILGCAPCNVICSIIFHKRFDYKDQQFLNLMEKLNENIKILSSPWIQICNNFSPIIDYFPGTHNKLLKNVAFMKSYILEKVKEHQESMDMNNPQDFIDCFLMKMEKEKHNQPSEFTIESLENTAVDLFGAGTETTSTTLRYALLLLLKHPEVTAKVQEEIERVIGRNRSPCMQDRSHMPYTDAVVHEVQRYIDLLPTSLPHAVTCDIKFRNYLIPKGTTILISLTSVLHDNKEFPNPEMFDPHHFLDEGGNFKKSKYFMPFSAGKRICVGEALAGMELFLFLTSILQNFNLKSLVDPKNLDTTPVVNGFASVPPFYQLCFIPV
structure (smiles),measurement,setting,value
"CO[C@H]1/C=C/O[C@@]2(C)Oc3c(C)c(O)c4c(O)c(c5c(nc6cc(C)ccn65)c4c3C2=O)NC(=O)/C(C)=C\C=C\[C@H](C)[C@H](O)[C@@H](C)[C@@H](O)[C@@H](C)[C@H](OC(C)=O)[C@@H]1C [Rifaximin, (2S,16Z,18E,20S,21S,22R,23R,24R,25S,26S,27S,28E)-5,6,21,23,25 Pentahydroxy-27-methoxy-2,4,11,16,20,22,24,26-octamethyl-2,7-(epoxypentadeca-(1,11,13)trienimino) benzofuro (4,5-e) pyrido(1,2-a) benzimidazole-1,15(2H)-dione,25-acetate]",Inhibition of cytochrome P450 2C9,cytochrome P450 2C9,does not inhibit
same,Subjects with skin or subcutaneous tissue disorders,non-constipation IBS; 550 mg TID,1.3%
same,"Adequate relief of IBS symptom of bloating based on daily measures, Failure",non-constipation IBS; [1],182 (57.8%) N (%)
same,"Adequate relief of IBS symptom of bloating based on daily measures, Success",non-constipation IBS; [1],133 (42.2%) N (%)
same,"Adequate relief of IBS symptoms based on daily measures, Failure",non-constipation IBS; [1],200 (63.5%) N (%)
same,"Adequate relief of IBS symptoms based on daily measures, Success",non-constipation IBS; [1],115 (36.5%) N (%)
same,"Adequate relief of IBS symptom of bloating based on daily measures, Failure",non-constipation IBS; [2],180 (57.9%) N (%)
same,"Adequate relief of IBS symptom of bloating based on daily measures, Success",non-constipation IBS; [2],131 (42.1%) N (%)
same,"Adequate relief of IBS symptoms based on daily measures, Failure",non-constipation IBS; [2],196 (63.0%) N (%)
same,"Adequate relief of IBS symptoms based on daily measures, Success",non-constipation IBS; [2],115 (37.0%) N (%)
same,"Adequate relief of IBS symptom of bloating (weekly SGA), Failure",non-constipation IBS; [3],187 (60.1%) N (%)
same,"Adequate relief of IBS symptom of bloating (weekly SGA), Success",non-constipation IBS; [3],124 (39.9%) N (%)
same,"Adequate relief of IBS symptoms (weekly SGA), Failure",non-constipation IBS; [3],187 (60.1%) N (%)
same,"Adequate relief of IBS symptoms (weekly SGA), Success",non-constipation IBS; [3],124 (39.9%) N (%)
same,"Adequate relief of IBS symptom of bloating (weekly SGA), Failure",non-constipation IBS; [4],190 (60.3%) n (%)
same,"Adequate relief of IBS symptom of bloating (weekly SGA), Success",non-constipation IBS; [4],125 (39.7%) n (%)
same,"Adequate relief of IBS symptoms (weekly SGA), Failure",non-constipation IBS; [4],190 (60.3%) n (%)
same,"Adequate relief of IBS symptoms (weekly SGA), Success",non-constipation IBS; [4],125 (39.7%) n (%)
same,Subjects discontinued study early for Adverse Event/Serious Adverse Event,"non-constipation IBS; 550 mg TID, randomized subjects (316)",0 n (%)
same,"Adequate relief of IBS symptom of bloating (weekly SGA), Failure",non-constipation IBS; [5],171 (60.9%) N (%)
same,"Adequate relief of IBS symptom of bloating (weekly SGA), Success",non-constipation IBS; [5],110 (39.1%) N (%)
same,"Adequate relief of IBS symptoms (weekly SGA), Failure",non-constipation IBS; [5],171 (60.9%) N (%)
same,"Adequate relief of IBS symptoms (weekly SGA), Success",non-constipation IBS; [5],110 (39.1%) N (%)
same,"Adequate relief of IBS symptom of bloating (weekly SGA), Failure",non-constipation IBS; [6],16 (53.3%) N (%)
same,"Adequate relief of IBS symptom of bloating (weekly SGA), Success",non-constipation IBS; [6],14 (46.7%) N (%)
same,"Adequate relief of IBS symptoms (weekly SGA), Failure",non-constipation IBS; [6],16 (53.3%) N (%)
same,"Adequate relief of IBS symptoms (weekly SGA), Success",non-constipation IBS; [6],14 (46.7%) N (%)
same,"Adequate relief of IBS symptom of bloating (weekly SGA), Failure",non-constipation IBS; [7],128 (56.6%) N (%)
same,"Adequate relief of IBS symptom of bloating (weekly SGA), Success",non-constipation IBS; [7],98 (43.4%) N (%)
same,"Adequate relief of IBS symptoms (weekly SGA), Failure",non-constipation IBS; [7],130 (57.5%) N (%)
same,"Adequate relief of IBS symptoms (weekly SGA), Success",non-constipation IBS; [7],96 (42.5%) N (%)
same,"Adequate relief of IBS symptom of bloating (weekly SGA), Failure",non-constipation IBS; [8],59 (69.4%) N (%)
same,"Adequate relief of IBS symptom of bloating (weekly SGA), Success",non-constipation IBS; [8],26 (30.6%) N (%)
same,"Adequate relief of IBS symptoms (weekly SGA), Failure",non-constipation IBS; [8],57 (67.1%) N (%)
same,"Adequate relief of IBS symptoms (weekly SGA), Success",non-constipation IBS; [8],28 (32.9%) N (%)
same,"Adequate relief of IBS symptom of bloating (weekly SGA), Failure",non-constipation IBS; [9],19 (55.9%) N (%)
same,"Adequate relief of IBS symptom of bloating (weekly SGA), Success",non-constipation IBS; [9],15 (44.1%) N (%)
same,"Adequate relief of IBS symptoms (weekly SGA), Failure",non-constipation IBS; [9],21 (61.8%) N (%)
same,"Adequate relief of IBS symptoms (weekly SGA), Success",non-constipation IBS; [9],13 (38.2%) N (%)
same,"Adequate relief of IBS symptom of bloating (weekly SGA), Failure",non-constipation IBS; [10],168 (60.6%) N (%)
same,"Adequate relief of IBS symptom of bloating (weekly SGA), Success",non-constipation IBS; [10],109 (39.4%) N (%)
same,"Adequate relief of IBS symptoms (weekly SGA), Failure",non-constipation IBS; [10],166 (59.9%) N (%)
same,"Adequate relief of IBS symptoms (weekly SGA), Success",non-constipation IBS; [10],111 (40.1%) N (%)
same,"Adequate relief of IBS symptom of bloating (weekly SGA), Failure",non-constipation IBS; [11],17 (54.8%) N(%)
same,"Adequate relief of IBS symptom of bloating (weekly SGA), Success",non-constipation IBS; [11],14 (45.2%) N(%)
same,"Adequate relief of IBS symptoms (weekly SGA), Failure",non-constipation IBS; [11],16 (51.6%) N(%)
same,"Adequate relief of IBS symptoms (weekly SGA), Success",non-constipation IBS; [11],15 (48.4%) N(%)
same,"Adequate relief of IBS symptom of bloating (weekly SGA), Failure",non-constipation IBS; [12],170 (60.7%) N (%)
same,"Adequate relief of IBS symptom of bloating (weekly SGA), Success",non-constipation IBS; [12],110 (39.3%) N (%)
same,"Adequate relief of IBS symptoms (weekly SGA), Failure",non-constipation IBS; [12],171 (61.1%) N (%)
same,"Adequate relief of IBS symptoms (weekly SGA), Success",non-constipation IBS; [12],109 (38.9%) N (%)
same,IBS symptom of bloating: adequate relief at least 2 out of 4 weeks during weeks 3 through 6 (weekly question),non-constipation IBS; Study 2 / TARGET 2,41%
same,Global IBS symptoms: adequate relief at least 2 out of 4 weeks during weeks 3 through 6 (weekly question),"non-constipation IBS; Study 2 / TARGET 2, 550 mg TID 14 d",41% and 32% vs 41%
same,Responders: abdominal pain reduction of 1 point in weekly mean,non-constipation IBS; [13],52%
same,Responders: abdominal pain reduction of 2 point in median,non-constipation IBS; [13],41%
same,Responders: abdominal pain reduction of 3 point in mean,non-constipation IBS; [13],6% vs 7%
same,Responders: abdominal pain reduction of 3 point in median,non-constipation IBS; [13],21%
same,Responders: daily abdominal pain < 2 for at least 50% of days in a week,non-constipation IBS; [13],39%
same,Responders: overall reduction of mean weekly abdominal pain by >= 25%,non-constipation IBS; [13],58%
same,Responders: overall reduction of mean weekly abdominal pain by >= 50%,non-constipation IBS; [13],35%
same,Responders: overall reduction of mean weekly abdominal pain by >= 75%,non-constipation IBS; [13],14%
same,Responders: overall reduction of median weekly abdominal pain by >= 25%,non-constipation IBS; [13],62%
same,Responders: overall reduction of median weekly abdominal pain by >= 50%,non-constipation IBS; [13],44%
same,Abdominal Pain Responders: %,non-constipation IBS; [14],52%
same,Abdominal Pain Responders: n,non-constipation IBS; [14],165
same,Abdominal Pain and Stool Consistency Responders: %,non-constipation IBS; [14],47%
same,Abdominal Pain and Stool Consistency Responders: n,non-constipation IBS; [14],147
same,Adequate Relief of IBS Symptoms: %,non-constipation IBS; [14],41%
same,Adequate Relief of IBS Symptoms: n,non-constipation IBS; [14],128
same,Adequate Relief of IBS-Related Bloating: %,non-constipation IBS; [14],41%
same,Adequate Relief of IBS-Related Bloating: n,non-constipation IBS; [14],129
same,Stool Consistency Responders: %,non-constipation IBS; [14],74%
same,Stool Consistency Responders: n,non-constipation IBS; [14],233
same,Monthly responders for abdominal pain (≥30% decrease) and stool consistency (score <4),"non-constipation IBS; TARGET 2, ≥2 weeks in month following 2 weeks of treatment",47%
same,% with decrease in stool frequency (SF),"non-constipation IBS; Week 1, 550 mg TID",14.4%
same,% with decrease in stool frequency (SF),"non-constipation IBS; Week 2, 550 mg TID",20.6%
same,% with decrease in stool frequency (SF),"non-constipation IBS; Week 3, 550 mg TID",22.2%
same,% with decrease in stool frequency (SF),"non-constipation IBS; Week 4, 550 mg TID",21.6%
same,% with decrease in stool frequency (SF),"non-constipation IBS; Week 5, 550 mg TID",25.7%
same,% with decrease in stool frequency (SF),"non-constipation IBS; Week 6, 550 mg TID",22.9%
same,% with decrease in stool frequency (SF),"non-constipation IBS; Week 7, 550 mg TID",23.8%
same,% with decrease in stool frequency (SF),"non-constipation IBS; Week 8, 550 mg TID",24.4%
same,% with decrease in stool frequency (SF),"non-constipation IBS; Week 9, 550 mg TID",25.4%
same,% with decrease in stool frequency (SF),"non-constipation IBS; Week 10, 550 mg TID",26.7%
same,% with decrease in stool frequency (SF),"non-constipation IBS; Week 11, 550 mg TID",25.4%
same,% with decrease in stool frequency (SF),"non-constipation IBS; Week 12, 550 mg TID",27.0%
same,Additional fetal malformations,rabbit fetuses; fetal rabbits,"cleft palate, lumbar scoliosis, brachygnathia, interventricular septal defect, and large atrium"
same,Fetal malformations,"rabbit fetuses; pregnant rabbits, dose levels that caused reduced body weight gain",eye malformations
